Laboratory results from PMC9779727, “Identification of Novel Artemisinin Hybrids Induce Apoptosis and Ferroptosis in MCF-7 Cells” (International Journal of Molecular Sciences, 2022).

Key:
MCF-7 cells [1] = test: Annexin V-FITC/PI apoptosis assay (flow cytometry); type: cell-based, human; details: 48 h
Description: (§1) To investigate whether hybrid A8 exerts an antitumor effect on MCF-7 cells by inducing apoptosis, an annexin V-FITC/PI binding assay was performed. MCF-7 cells were treated with vehicle or various concentrations (2.5, 5 and 10 μM) of hybrid A8 for 48 h and were then stained with FITC-annexin V and propidium iodide (PI). The percentages of apoptotic MCF-7 cells were determined by flow cytometry. A8-induced apoptosis in a dose-dependent manner. The percentages of total apoptotic cells (Q1-UR + Q1-LR) were 17.99% (2.5 μM), 35.98% (5 μM) and 48.65% (10 μM). […] In addition, obvious changes in cell morphology were also observed.
Cells apoptosis was assessed using Annexin V/PI staining assay. MCF-7 cells were seeded into 6-well plates for 24 h and then treated with compound A8 at various concentrations (0, 2.5, 5 and 10 μM) for 48 h. Then, cells were collected, washed with 500 μL annexin-binding buffer and stained with 5 μL annexin V-FITC and 5 μL PI for 15 min at 25 °C. After that, the samples were analyzed by flow cytometry (Beckman Coulter cytoFLEX, Brea, CA, USA).

MCF-7 cells [2] = test: JC-1 mitochondrial membrane potential assay; type: cell-based, human; details: 48 h, control 7.85%
Description: JC-1 staining was also performed to explore the change in mitochondrial membrane potential (MMP), which could induce apoptosis.
MCF-7 cells were plated at 1 × 10^6 cells per well in 24-well plates and incubated with compound A8 at various concentrations (0, 2.5, 5 and 10 μM) for 48 h. Subsequently, the cells were incubated with JC-1 dye and finally analyzed by flow cytometry (Beckman Coulter cytoFLEX, USA).

MCF-7 cells [3] = test: TUNEL staining; type: cell-based, human; details: MCF-7, varying concentrations
Description: as §1
The slides were immersed in 4% paraformaldehyde (pH 7.4) for 25 min at room temperature and then washed with PBS 3 times. The cells were immersed in 0.1% Triton X-100 solution prepared with PBS for 10 min (operation on ice) and then washed twice with PBS. Dilute 5 × equilibration buffer with deionized water and 100 μL 1 × equilibration buffer was added to each climbing tablet to cover the sample area to be tested, then incubated at room temperature for 15 min. […] The water-absorbent paper was used to absorb the liquid on the climbing sheet, and the sealing liquid containing anti fluorescence quenching agent was used to seal the film, and then the images were observed and collected under the fluorescence microscope.

[4] = test system: breast cancer MDA-MB-231 cells; test: MTT antiproliferation assay, MDA-MB-231; type: cell-based, human; details: 48 h, means ± SD, n = 3
Text: The target hybrids A1–A15 were screened for their antiproliferation activities against five human cancer cell lines (lung cancer A549 cells, breast cancer MCF-7 and MDA-MB-231 cells, colon cancer HCT116 cells and ovarian cancer SK-OV-3 cells) in vitro by the standard MTT method, and 5-fluorouracil (5-FU) and ART were coassayed as controls. […] Therefore, the most promising hybrid, A8, was chosen for further exploration of the preliminary mechanism of MCF-7 cell antiproliferation.
Cytotoxicity of test compounds against five different tumor cell lines were evaluated using an MTT assay in vitro. Cells were seeded into 96-well plates at a density of 5 × 10^4 cells per well and stabilized at 37 °C with 5% CO2 for 24 h. Compounds A1–A15, ART and 5-FU were added to each well at various concentrations and then the cells were incubated for 48 h. The MTT solution (100 μL 0.5 mg/mL^−1) was added to each well, and the cells were incubated for another 4 h. Then, 150 μL DMSO was added to each well and the absorbance of samples was measured at 492 nm. The IC50 values were calculated according to Logit method after getting the inhibitory rate.

CYP2C9 = target: T1, CYP2C9 (Homo sapiens, UniProt P11712); test: CYPs inhibition assay, CYP2C9; type: in vitro ADME; details: human liver microsomes
T1 construct: from tissue; host or cells: human liver microsomes
Description: (§2) Finally, we evaluated the interaction between the hybrid A8 and five major metabolic enzymes (CYP1A2, CYP2C9, CYP2C19, CYP2D6 and CYP3A4) in the human body. […] It is also one of the directions for our further transformation and optimization.
(§3) Cytochrome P450 inhibition was evaluated in human liver microsomes (0.253 mg/mL) using five […] (CYP1A2, α-Naphthoflavone; CYP2C9, Sulfaphenazole; CYP2C19, Benzylnirvanol; CYP2D6, Quinidine; and CYP3A4, Ketoconazole.) in the presence of compound A8 (10 μM). After preincubation for 10 min at 37 °C, an NADPH-regenerating system was added. After the mixed system was incubated for 15 min at 37 °C, the reaction was stopped by adding 400 μL of cold stop solution (200 ng/mL tolbutamide and 200 ng/mL labetalol in acetonitrile). Then, the mixture was centrifuged, and the supernatant was analyzed by LC-MS/MS.

MCF-7 cells [5] = test: GSH level detection; type: cell-based, human
Text: We also determined the effect of A8 on the expression of GSH and MDA (lipid peroxidation).
Lipid peroxidation assay kit (Beyotime, Shanghai, China) was used to detect malonaldehyde (MDA), together with GSH level assay, present in samples, as per the manufacturer’s instruction with slight modifications.

MCF-7 cells [6] = test: Cell colony formation assay; type: cell-based, human; details: 12 d
Description: We chose a cell colony formation assay to determine the antiproliferative effect of the compound more intuitively.
MCF-7 cells were seeded into 6-well plates at 37 °C with 5% CO2 for 24 h and then treated with compound A8 at various concentrations (0, 2.5, 5 and 10 μM), ART (10 μM) and 5-FU (10 μM) for 12 d. Then, cells were stained with Giemsa and clones number were counted directly with naked eyes.

CYP2D6 = target: T2, CYP2D6 (Homo sapiens, UniProt P10635); test: CYPs inhibition assay, CYP2D6; type: in vitro ADME; details: human liver microsomes
T2 construct: from tissue; host or cells: human liver microsomes
Description: as §2, §3

CYP2C19 = target: T3, CYP2C19 (Homo sapiens, UniProt P33261); test: CYPs inhibition assay, CYP2C19; type: in vitro ADME; details: human liver microsomes
T3 construct: from tissue; host or cells: human liver microsomes
Description: as §2, §3

T2 sequence (P10635 whole entry): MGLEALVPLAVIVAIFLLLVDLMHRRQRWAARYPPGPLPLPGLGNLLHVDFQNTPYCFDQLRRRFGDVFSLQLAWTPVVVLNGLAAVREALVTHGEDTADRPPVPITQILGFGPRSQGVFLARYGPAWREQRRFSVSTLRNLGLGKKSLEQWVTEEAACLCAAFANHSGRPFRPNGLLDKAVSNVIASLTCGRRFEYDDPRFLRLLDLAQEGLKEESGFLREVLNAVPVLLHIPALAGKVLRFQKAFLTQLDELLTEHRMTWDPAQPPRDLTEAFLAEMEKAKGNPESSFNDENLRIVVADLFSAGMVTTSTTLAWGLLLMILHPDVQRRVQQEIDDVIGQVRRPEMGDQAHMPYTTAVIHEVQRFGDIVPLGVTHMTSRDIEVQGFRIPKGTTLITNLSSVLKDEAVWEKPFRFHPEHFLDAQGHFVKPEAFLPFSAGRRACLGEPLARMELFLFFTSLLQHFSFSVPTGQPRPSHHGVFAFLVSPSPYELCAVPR
T1 sequence (P11712 whole entry): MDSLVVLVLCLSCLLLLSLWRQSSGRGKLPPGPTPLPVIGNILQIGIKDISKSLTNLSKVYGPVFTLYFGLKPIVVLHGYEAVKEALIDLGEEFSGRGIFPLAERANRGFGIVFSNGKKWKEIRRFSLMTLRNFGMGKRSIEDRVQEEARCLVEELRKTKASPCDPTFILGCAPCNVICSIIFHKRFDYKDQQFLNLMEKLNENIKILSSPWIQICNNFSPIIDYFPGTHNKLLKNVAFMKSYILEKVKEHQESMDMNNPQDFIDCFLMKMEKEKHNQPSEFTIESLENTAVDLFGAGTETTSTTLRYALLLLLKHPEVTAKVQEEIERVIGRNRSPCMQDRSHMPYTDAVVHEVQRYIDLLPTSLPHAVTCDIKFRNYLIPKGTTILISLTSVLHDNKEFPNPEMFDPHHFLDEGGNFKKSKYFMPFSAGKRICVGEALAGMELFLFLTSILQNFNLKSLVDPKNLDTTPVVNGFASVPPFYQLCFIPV
T3 sequence (P33261 whole entry): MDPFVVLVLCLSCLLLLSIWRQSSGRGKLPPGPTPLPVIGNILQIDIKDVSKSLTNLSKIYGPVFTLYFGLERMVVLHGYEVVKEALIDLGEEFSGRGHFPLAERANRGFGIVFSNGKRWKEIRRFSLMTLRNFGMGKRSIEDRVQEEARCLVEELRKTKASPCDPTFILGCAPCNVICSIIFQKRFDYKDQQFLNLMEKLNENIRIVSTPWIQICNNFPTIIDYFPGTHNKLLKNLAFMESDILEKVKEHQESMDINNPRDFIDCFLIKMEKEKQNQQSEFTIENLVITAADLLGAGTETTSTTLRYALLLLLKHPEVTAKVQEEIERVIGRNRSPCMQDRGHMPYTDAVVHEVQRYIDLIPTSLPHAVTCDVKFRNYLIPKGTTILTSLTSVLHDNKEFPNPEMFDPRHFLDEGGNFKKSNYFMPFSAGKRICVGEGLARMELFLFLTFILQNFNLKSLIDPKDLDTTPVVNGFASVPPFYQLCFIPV

## CC1CCC2C(C)C(OC(=O)CCC(=O)NCc3nnc(Nc4ccc(F)cc4F)o3)OC3OC4(C)CCC1C32OO4 (centres unmarked) [A8]
MCF-7 cells [1]; MCF-7, 2.5 μM
  percentage of total apoptotic cells (Q1-UR + Q1-LR): 17.99%
MCF-7 cells [1]; MCF-7, 5 μM
  percentage of total apoptotic cells (Q1-UR + Q1-LR): 35.98%
MCF-7 cells [1]; MCF-7, 10 μM
  percentage of total apoptotic cells (Q1-UR + Q1-LR): 48.65%
MCF-7 cells [2]; 2.5 μM
  proportion of MCF-7 cells with depolarized mitochondria (Q1-LR): 19.45%
MCF-7 cells [2]; 5 μM
  proportion of MCF-7 cells with depolarized mitochondria (Q1-LR): 36.90%
MCF-7 cells [2]; 10 μM
  proportion of MCF-7 cells with depolarized mitochondria (Q1-LR): 48.70%
MCF-7 cells [3]
  number of cells that emitted red fluorescence (apoptotic cells), TUNEL (in words): increased as the administration concentration increased
[4]
  IC50: 5.27 ± 0.02 µM
CYP2C9
  Inhibition at 10 μM (%) CYP2C9: 6.4%
MCF-7 cells [5]
  GSH level (in words): decreased significantly
MCF-7 cells [6]; MCF-7, 0, 2.5, 5 and 10 μM
  cell colony number (in words): decreased in a dose-dependent manner
MCF-7 cells [6]; MCF-7, same administration concentration (10 μM)
  antiproliferative effect in colony formation compared with controls (in words): better than that of 5-FU and ART
CYP2D6
  Inhibition at 10 μM (%) CYP2D6: 0.1%
CYP2C19
  Inhibition at 10 μM (%) CYP2C19: 12.3%
